The target in this assay is T1, human CCR-3 (Homo sapiens, UniProt P51677).
T1 construct: expressed in transfected cells; host or cells: rat basophil leukaemia (RBL-2H3) cells, membranes
T1 sequence (P51677 1-355): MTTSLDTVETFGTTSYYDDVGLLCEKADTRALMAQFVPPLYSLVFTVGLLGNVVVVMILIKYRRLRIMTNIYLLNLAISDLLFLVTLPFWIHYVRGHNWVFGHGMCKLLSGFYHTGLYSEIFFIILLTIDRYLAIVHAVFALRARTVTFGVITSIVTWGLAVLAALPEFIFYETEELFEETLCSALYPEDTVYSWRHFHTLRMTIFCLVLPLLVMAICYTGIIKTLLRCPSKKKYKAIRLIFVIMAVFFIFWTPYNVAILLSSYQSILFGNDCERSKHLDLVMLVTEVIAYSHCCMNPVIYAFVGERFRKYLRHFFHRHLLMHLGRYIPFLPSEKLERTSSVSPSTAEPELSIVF
The assay can be described thus: binding of [125I]-human eotaxin to human CCR-3 (SPA assay). The conditions noted are these: membranes of RBL-2H3 cells stably expressing CCR3; 50 pM [125I]-human eotaxin; 4 hours at room temperature; read-out: IC50 (concentration of test compound at which 50% inhibition of eotaxin binding occurs). How it is done:
Compounds of formula I and their pharmaceutically acceptable salts are useful as pharmaceuticals. In particular, they inhibit human chemokine receptor CCR-3. The effect of compounds of the formula I, i.e. agents of the invention, on the binding of human eotaxin to human CCR-3 is determined by the following assay:
Recombinant cells expressing human CCR-3 are captured by wheatgerm agglutinin (WGA) polyvinyltoluidene (PVT) SPA beads (available from Marshal), through a specific interaction between the WGA and carbohydrate residues of glycoproteins on the surface of the cells. [^125I]-human eotaxin (available from Amersham) binds specifically to CCR-3 receptors bringing the [^125I]-human eotaxin in close proximity to the SPA beads. Emitted â-particles from the [^125I]-human eotaxin excite, by its proximity, the fluorophore in the beads and produce light.
Preparation of Assay Buffer: 5.96 g HEPES and 7.0 g sodium chloride are dissolved in distilled water and 1 M aqueous CaCl2 (1 ml) and 1M aqueous MgCl2 (5 ml) are added. The pH is adjusted to 7.6 with NaOH and the solution made to a final volume of 1 l using distilled water. 5 g bovine serum albumin and 0.1 g sodium azide are then dissolved in the solution and the resulting buffer stored at 4° C. A COMPLETE™ protease inhibitor cocktail tablet (available from Boehringer) is added per 50 ml of the buffer on the day of use.
Preparation of Homogenisation Buffer: Tris-base (2.42 g) is dissolved in distilled water, the pH of the solution is adjusted to 7.6 with hydrochloric acid and the solution is diluted with distilled water to a final volume of 1 l. The resulting buffer is stored at 4° C. A COMPLETE™ protease inhibitor cocktail tablet is added per 50 ml of the buffer on the day of use. […]
The assay is performed in a final volume of 250 μl per well of an OPTIPLATE™ microplate (ex Canberra Packard). […] The resulting scintillations are counted using a Canberra Packard TopCount, each well being counted for 1 minute. […]
Take `O=C(CNC(=O)c1ccc(Cl)cc1)NCC1CN(Cc2ccc(Cl)c(Cl)c2)C1` [Example 5]: the IC50 was found to be 297 nM. The result for `Cc1cc(C(=O)NCC(=O)NCC2CN(Cc3ccc(Cl)c(Cl)c3)C2)c(C)n1Cc1ccncc1` [Example 7] reads 420 nM; that for `CCOc1ccc2nc(SCC(=O)NCC3CN(Cc4ccc(Cl)c(Cl)c4)C3)sc2c1` [Example 8, N-[1-(3,4-Dichloro-benzyl)-azetidin-3-yl-methyl]-2-(6-ethoxy-benzothiazol-2-ylsulfanyl)-acetamide], 198 nM.

The record behind these values is patent US7691841B2, “Azetidine derivatives as CCR-3 receptor antagonist” (Novartis AG, priority 2004, dated 2010).
